{"source": "paper PMC7125537", "about": "(Bioorganic & Medicinal Chemistry Letters, 2010)", "test_system": "DU-145 cells", "test": "Migration assay", "assay_type": "cell-based, human"}
{"smiles": "NC(=S)N/N=C(/c1cccc(Br)c1)c1ccccc1F", "note": "[analog 1, 3-bromophenyl-2′-fluorophenyl thiosemicarbazone]", "values": [{"measurement": "inhibition of DU-145 cell migration (in words)", "value": "effective inhibitor of DU-145 cell invasion and migration"}]}
